Measured values: US9212182B2, “Bicyclic sulfonamide compounds as sodium channel inhibitors” (AMGEN INC., priority 2013, dated 2015)
Where two headings read alike, the source gives them in different places.

Columns and labels:
Nav 1.7 = Nav 1.7 (Homo sapiens (Human), UniProt Q15858); assay: in-vitro Nav 1.7 PX (IC50); type: cell-based
Nav 1.5 = Nav 1.5 (Homo sapiens (Human), UniProt Q14524); assay: in-vitro Nav 1.5 PX (IC50); conditions: read-out: Nav 1.5 PX IC50
[1] = in-vitro Nav 1.5 PX data (PatchXpress)

Nav 1.5, sequence (Q14524 whole entry): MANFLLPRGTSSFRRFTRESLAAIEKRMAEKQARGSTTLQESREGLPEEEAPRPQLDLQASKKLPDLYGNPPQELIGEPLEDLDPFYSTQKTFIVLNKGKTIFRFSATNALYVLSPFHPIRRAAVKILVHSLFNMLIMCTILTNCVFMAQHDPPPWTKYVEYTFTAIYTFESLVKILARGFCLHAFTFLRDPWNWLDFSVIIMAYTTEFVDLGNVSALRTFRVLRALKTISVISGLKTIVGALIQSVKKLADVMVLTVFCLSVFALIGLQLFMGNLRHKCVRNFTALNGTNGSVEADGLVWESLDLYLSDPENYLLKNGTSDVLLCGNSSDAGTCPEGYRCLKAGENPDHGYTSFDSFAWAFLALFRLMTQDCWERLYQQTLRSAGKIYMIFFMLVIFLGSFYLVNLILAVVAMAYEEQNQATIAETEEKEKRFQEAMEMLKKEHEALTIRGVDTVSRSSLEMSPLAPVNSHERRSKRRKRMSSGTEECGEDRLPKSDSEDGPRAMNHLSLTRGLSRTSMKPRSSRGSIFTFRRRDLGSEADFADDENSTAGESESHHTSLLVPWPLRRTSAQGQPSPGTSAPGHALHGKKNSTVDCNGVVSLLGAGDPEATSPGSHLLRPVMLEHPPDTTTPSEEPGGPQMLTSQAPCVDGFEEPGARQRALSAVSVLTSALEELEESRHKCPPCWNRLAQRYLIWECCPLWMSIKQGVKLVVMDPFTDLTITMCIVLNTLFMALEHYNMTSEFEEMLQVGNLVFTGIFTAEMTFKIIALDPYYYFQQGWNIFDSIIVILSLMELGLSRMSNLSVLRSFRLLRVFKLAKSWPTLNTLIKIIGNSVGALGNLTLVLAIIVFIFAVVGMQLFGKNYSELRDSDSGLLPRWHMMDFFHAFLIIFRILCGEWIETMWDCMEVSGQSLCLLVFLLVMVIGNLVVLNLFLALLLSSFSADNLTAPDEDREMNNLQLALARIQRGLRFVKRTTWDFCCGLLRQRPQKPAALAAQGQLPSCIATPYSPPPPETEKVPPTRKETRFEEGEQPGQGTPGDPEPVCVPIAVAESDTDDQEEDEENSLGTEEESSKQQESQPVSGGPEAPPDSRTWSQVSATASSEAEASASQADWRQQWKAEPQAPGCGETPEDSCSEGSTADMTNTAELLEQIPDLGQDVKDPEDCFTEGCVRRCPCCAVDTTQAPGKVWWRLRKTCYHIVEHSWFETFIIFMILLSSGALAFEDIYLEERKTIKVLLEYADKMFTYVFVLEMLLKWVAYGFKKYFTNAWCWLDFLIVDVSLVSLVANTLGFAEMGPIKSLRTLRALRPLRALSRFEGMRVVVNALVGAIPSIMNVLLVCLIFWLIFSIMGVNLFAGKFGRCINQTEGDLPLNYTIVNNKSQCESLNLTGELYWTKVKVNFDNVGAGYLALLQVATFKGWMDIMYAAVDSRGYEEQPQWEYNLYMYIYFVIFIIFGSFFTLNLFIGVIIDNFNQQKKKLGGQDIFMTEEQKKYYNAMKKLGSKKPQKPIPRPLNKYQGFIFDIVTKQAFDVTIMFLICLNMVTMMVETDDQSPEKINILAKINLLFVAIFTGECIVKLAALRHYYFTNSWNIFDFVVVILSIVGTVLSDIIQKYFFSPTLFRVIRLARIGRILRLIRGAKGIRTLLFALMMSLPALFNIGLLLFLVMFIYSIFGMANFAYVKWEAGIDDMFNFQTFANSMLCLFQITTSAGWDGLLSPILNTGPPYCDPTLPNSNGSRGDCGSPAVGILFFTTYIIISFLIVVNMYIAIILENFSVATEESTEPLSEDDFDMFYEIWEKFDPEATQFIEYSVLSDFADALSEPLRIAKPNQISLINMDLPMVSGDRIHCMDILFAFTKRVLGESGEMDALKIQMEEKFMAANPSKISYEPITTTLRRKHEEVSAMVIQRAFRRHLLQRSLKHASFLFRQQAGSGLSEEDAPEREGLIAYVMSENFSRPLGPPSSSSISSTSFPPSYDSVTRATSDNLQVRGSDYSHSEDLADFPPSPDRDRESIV
Nav 1.7, sequence (Q15858 whole entry): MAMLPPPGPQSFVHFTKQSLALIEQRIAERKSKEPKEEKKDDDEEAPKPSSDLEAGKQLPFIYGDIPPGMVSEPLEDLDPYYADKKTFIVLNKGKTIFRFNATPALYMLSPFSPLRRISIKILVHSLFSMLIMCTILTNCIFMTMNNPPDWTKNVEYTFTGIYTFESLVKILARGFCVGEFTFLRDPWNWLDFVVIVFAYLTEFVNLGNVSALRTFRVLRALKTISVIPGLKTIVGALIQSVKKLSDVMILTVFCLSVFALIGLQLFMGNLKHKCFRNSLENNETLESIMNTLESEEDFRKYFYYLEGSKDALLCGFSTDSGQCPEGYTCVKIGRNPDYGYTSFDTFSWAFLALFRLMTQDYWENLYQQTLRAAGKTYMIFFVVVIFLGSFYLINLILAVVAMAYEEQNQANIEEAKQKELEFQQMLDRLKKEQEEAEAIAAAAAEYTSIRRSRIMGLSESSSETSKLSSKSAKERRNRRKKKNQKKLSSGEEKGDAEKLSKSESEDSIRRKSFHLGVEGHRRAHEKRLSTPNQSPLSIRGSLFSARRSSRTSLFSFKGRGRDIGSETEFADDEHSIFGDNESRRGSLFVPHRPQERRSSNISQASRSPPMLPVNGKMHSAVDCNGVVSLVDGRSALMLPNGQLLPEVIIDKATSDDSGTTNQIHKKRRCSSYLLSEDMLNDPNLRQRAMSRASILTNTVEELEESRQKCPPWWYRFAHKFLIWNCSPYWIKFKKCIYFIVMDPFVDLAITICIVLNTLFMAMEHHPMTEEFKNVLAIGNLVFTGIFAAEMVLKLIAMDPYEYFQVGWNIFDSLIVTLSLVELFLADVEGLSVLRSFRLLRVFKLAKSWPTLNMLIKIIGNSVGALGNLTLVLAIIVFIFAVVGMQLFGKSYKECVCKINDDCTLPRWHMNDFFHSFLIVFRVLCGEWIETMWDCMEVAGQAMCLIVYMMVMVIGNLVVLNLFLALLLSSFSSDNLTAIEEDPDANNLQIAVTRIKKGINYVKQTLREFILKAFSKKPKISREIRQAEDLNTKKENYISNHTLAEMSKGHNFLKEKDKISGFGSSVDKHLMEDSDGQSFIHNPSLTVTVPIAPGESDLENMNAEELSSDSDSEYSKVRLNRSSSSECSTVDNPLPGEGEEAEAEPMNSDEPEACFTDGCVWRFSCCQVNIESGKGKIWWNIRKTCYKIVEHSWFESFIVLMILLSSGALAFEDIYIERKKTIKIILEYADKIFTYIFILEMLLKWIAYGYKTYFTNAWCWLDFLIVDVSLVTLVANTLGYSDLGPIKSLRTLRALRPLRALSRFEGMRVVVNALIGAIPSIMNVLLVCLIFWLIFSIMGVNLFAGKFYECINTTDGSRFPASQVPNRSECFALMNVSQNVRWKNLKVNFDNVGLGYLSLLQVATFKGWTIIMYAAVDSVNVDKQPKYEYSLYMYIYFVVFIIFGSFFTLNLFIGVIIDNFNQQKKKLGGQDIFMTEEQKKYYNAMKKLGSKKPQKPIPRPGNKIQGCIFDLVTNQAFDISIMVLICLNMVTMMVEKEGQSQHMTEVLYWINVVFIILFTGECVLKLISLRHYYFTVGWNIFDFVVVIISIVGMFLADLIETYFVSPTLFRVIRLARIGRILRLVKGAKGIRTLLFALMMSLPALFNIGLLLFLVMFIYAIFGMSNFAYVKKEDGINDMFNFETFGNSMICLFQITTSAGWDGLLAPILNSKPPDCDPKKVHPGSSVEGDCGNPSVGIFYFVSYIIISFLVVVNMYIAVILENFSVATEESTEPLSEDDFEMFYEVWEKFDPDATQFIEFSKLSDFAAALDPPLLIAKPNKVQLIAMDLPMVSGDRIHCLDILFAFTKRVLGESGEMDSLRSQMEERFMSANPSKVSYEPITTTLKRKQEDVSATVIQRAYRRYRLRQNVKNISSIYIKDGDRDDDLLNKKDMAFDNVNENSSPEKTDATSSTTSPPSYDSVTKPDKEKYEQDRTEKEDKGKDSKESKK

SMILES	IC50 (Nav 1.7)	IC50 (Nav 1.5)	other results
COc1cc(-c2cccc(F)c2)c(Cl)cc1-n1c(=O)ccc2cc(S(=O)(=O)Nc3nncs3)ccc21 (atropisomer, axis not shown; (P)) [Example 353, (P)-1-(2-chloro-3′-fluoro-5-methoxy-[1,1′-biphenyl]-4-yl)-2-oxo-N-(1,3,4-THIADIAZOL-2-yl)-1,2-dihydroquinoline-6-sulfonamide]	12 nM	> 30000 nM	–
COc1cc(-c2cc(F)cc(Cl)c2)c(Cl)cc1-n1c(=O)ccc2cc(S(=O)(=O)Nc3ccon3)ccc21 (atropisomer, axis not shown; (P)) [Example 461, (P)-1-(2,3′-dichloro-5′-fluoro-5-methoxy-[1,1′-biphenyl]-4-yl)-N-(isoxazol-3-yl)-2-oxo-1,2-dihydroquinoline-6-sulfonamide]	6 nM	> 30000 nM	–
COc1cc(-c2cccc(F)c2)c(Cl)cc1-n1c(=O)ccc2cc(S(=O)(=O)Nc3ccncn3)ccc21 (atropisomer, axis not shown; (P)) [Example 465, (P)-1-(2-chloro-3′-fluoro-5-methoxy-[1,1′-biphenyl]-4-yl)-2-oxo-N-(pyrimidin-4-yl)-1,2-dihydroquinoline-6-sulfonamide]	–	> 30000 nM	–
COc1cc(-c2cccc(F)c2)c(Cl)cc1-n1c(=O)ccc2cc(S(=O)(=O)Nc3cccnn3)ccc21 (atropisomer, axis not shown; (P)) [Example 467, (P)-1-(2-chloro-3′-fluoro-5-methoxy-[1,1′-biphenyl]-4-yl)-2-oxo-N-(pyridazin-3-yl)-1,2-dihydroquinoline-6-sulfonamide]	13 nM	> 30000 nM	–
COc1cc(-c2cc(F)cc(Cl)c2)c(F)cc1-n1c(=O)ccc2cc(S(=O)(=O)Nc3ccon3)ccc21 (atropisomer, axis not shown; (P)) [Example 477, (P)-1-(3′-chloro-2,5′-difluoro-5-methoxy-4-biphenylyl)-N-3-isoxazolyl-2-oxo-1,2-dihydro-6-quinolinesulfonamide]	7 nM	> 30000 nM	–
COc1cc(-c2cccc(C(F)(F)F)c2)c(Cl)cc1-n1c(=O)ccc2cc(S(=O)(=O)Nc3ccon3)ccc21 (atropisomer, axis not shown; (P)) [Example 533, (P)-1-(2-chloro-5-methoxy-3′-(trifluoromethyl)-[1,1′-biphenyl]-4-yl)-N-(isoxazol-3-yl)-2-oxo-1,2-dihydroquinoline-6-sulfonamide]	4 nM	> 30000 nM	–
COc1cc(-c2cc(F)cnc2OC)ccc1-n1c(=O)ccc2cc(S(=O)(=O)Nc3ccon3)ccc21 (atropisomer, axis not shown; (P)) [Example 581, (P)-1-(4-(5-fluoro-2-methoxy-3-pyridinyl)-2-methoxyphenyl)-N-3-isoxazolyl-2-oxo-1,2-dihydro-6-quinolinesulfonamide]	102 nM	> 10000 nM	–
COc1cc(-c2cc(OC)c(-n3c(=O)ccc4cc(S(=O)(=O)Nc5cccnn5)ccc43)cc2F)ccc1Cl (atropisomer, axis not shown; (P)) [Example 628, (P)-1-(4′-chloro-2-fluoro-3′,5-dimethoxy-4-biphenylyl)-2-oxo-N-3-pyridazinyl-1,2-dihydro-6-quinolinesulfonamide]	–	–	IC50 (Nav 1.5; [1]): > 10000 nM
COc1cc(-c2cc(OC)c(-n3c(=O)ccc4cc(S(=O)(=O)Nc5ncccn5)ccc43)cc2F)ccc1Cl (atropisomer, axis not shown; (P)) [Example 685, (P)-1-(4′-chloro-2-fluoro-3′,5-dimethoxy-4-biphenylyl)-2-oxo-N-2-pyrimidinyl-1,2-dihydro-6-quinolinesulfonamide]	–	–	IC50 (Nav 1.5; [1]): > 10000 nM
COc1cc(-c2cc(OC)c(-n3c(=O)ccc4cc(S(=O)(=O)Nc5ccon5)ccc43)cc2F)ccc1C [Example 698, 1-(2-fluoro-3′,5-dimethoxy-4′-methyl-4-biphenylyl)-N-3-isoxazolyl-2-oxo-1,2-dihydro-6-quinolinesulfonamide]	–	–	IC50 (Nav 1.7; in-vitro Nav 1.7 PX data): 14 nM; IC50 (Nav 1.5; in-vitro Nav 1.5 PX data): > 10000 nM
COc1cc(Cl)cc(-c2cc(OC)c(-n3c(=O)ccc4cc(S(=O)(=O)Nc5ncccn5)ccc43)cc2F)c1 [Example 924, 1-(3′-chloro-2-fluoro-5,5′-dimethoxy-4-biphenylyl)-2-oxo-N-2-pyrimidinyl-1,2-dihydro-6-quinolinesulfonamide]	–	–	IC50 (Nav 1.7; in-vitro Nav 1.7 PX data): 14 nM; IC50 (Nav 1.5; in-vitro Nav 1.5 PX data): > 10000 nM
COc1cc(-c2ccc(F)c(C)c2)c(F)cc1-n1c(=O)ccc2cc(S(=O)(=O)Nc3ccon3)c(F)cc21 [Example 981, 1-(2,4′-difluoro-5-methoxy-3′-methyl-4-biphenylyl)-7-fluoro-N-3-isoxazolyl-2-oxo-1,2-dihydro-6-quinolinesulfonamide]	–	–	IC50 (Nav 1.7; in-vitro Nav 1.7 PX data): 14 nM; IC50 (Nav 1.5; in-vitro Nav 1.5 PX data): 496 nM
COc1cc(-c2ccc(Cl)c(C)c2)c(F)cc1-n1c(=O)ccc2cc(S(=O)(=O)Nc3ncns3)ccc21 [Example 1075, 1-(4′-chloro-2-fluoro-5-methoxy-3′-methyl-4-biphenylyl)-2-oxo-N-1,2,4-thiadiazol-5-yl-1,2-dihydro-6-quinolinesulfonamide]	–	–	IC50 (Nav 1.7; in-vitro Nav 1.7 PX data): 4 nM; IC50 (Nav 1.5; in-vitro Nav 1.5 PX data): > 10000 nM
COc1nc(NC[C@H]2CCC(C)(C)O2)c(Cl)cc1-n1c(=O)ccc2cc(S(=O)(=O)Nc3ccon3)ccc21 [Example 1232, 1-(5-chloro-6-((((2R)-5,5-dimethyltetrahydro-2-furanyl)methyl)amino)-2-methoxy-3-pyridinyl)-N-3-isoxazolyl-2-oxo-1,2-dihydro-6-quinolinesulfonamide, 1-(5-chloro-6-((((2S)-5,5-dimethyltetrahydro-2-furanyl)methyl)amino)-2-methoxy-3-pyridinyl)-N-3-isoxazolyl-2-oxo-1,2-dihydro-6-quinolinesulfonamide]	2940 nM	–	–
COc1nc(NCC2(C)CCCC2)c(Cl)cc1-n1c(=O)ccc2cc(S(=O)(=O)Nc3ccon3)ccc21 [Example 1236, 1-(5-chloro-2-methoxy-6-(((1-methylcyclopentyl)methyl)amino)-3-pyridinyl)-N-3-isoxazolyl-2-oxo-1,2-dihydro-6-quinolinesulfonamide]	507 nM	–	–
